Results as given in PMC6072469, “Small molecule piperazinyl-benzimidazole antagonists of the gonadotropin-releasing hormone (GnRH) receptor” (MedChemComm, 2017).
Values after ≈ are worked out from the molar mass of the structure shown. Read-outs that look alike come from different tables or passages of the source.

Key:
[1] = target: T1, hGnRH receptors (Homo sapiens, UniProt P30968); experiment: Functional cell assay (Ca2+ FLIPR): inhibition of receptor activation by LHRH/GnRH; format: cell-based; settings: for potency to inhibit GnRH receptor (in words): compared with 1 / desired range
T1 construct: host or cells: HEK293T (division-arrested, stably expressing)
T1 sequence (P30968 1-328): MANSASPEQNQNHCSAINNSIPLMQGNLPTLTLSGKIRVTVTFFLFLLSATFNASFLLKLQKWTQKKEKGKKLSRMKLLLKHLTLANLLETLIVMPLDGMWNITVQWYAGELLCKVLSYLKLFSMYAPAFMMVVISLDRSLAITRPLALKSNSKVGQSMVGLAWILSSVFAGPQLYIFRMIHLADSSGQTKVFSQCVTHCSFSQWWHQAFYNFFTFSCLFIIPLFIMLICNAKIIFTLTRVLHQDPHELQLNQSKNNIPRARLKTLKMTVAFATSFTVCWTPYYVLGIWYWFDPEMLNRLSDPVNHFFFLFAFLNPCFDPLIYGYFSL
Procedure: Compounds insoluble in DMSO at 10 mM were dropped from testing. […] The lead compound WAY207024 (1) was included as a reference in the cell assay. All IC50 values obtained for each test compound in the concentration dependent screening were converted into Ki values using the equation of Cheng and Prusoff.[15] […]
DMEM (Corning Hanks’ Balanced PBS +/- IBMX 1 mM IBMX in Cellgro 10- 013- Salt Solution (TBD by PBS
CV): 90%; (HBSS) titration)
_FBS (Seradigm with 20 mM
Plating cell density for Plating cell density for Forskolin concentration 384-well microplate 384-well microplate for cAMP assay (Gαi-for Ca++ assay for cAMP assay coupled) immediately immediately 5-15 μM without IBMX;
Assay preparations, pretreatment of cells and seeding on 384 well plates.
Thawing Medium was prepared by mixing commercially available stock solutions of DMEM (Corning Cellgro 10-013-CV) and Fetal Bovine Serum, FBS (Seradigm Catalog #1500-500) in a volume ratio of 9:1.
Vials containing 4 x 10^6 frozen cells were transferred from liquid nitrogen to a 37 °C water bath and gently warmed while submerged under water. Immediately after the frozen cells are thawed, the cryovial was removed from the water bath, dried and cleaned with 70% alcohol. Using a 2 mL serological pipette, the cell suspension was transferred to a 15-mL conical centrifuge tube containing 5 mL DMEM pre-warmed to r.t.. The mixture was triturated gently with the same 2 mL serological pipette without causing any air bubbles.
The 15-mL tube was spun at 200x g for 5 minutes at r.t. the supernatant was removed and cells were resuspended in 11 mL of DMEM complete to obtain a cell concentration of 360000 cells/ml. Based on previous titration of cell densitites, 9000 cells were seeded per well and the plate was incubated over night at 37 °C/CO 2.
1. Loading buffer from MD is prepared. Dissolve 1 vial of dye in 10 mL buffer from kit.
2. HBBS/Hepes (1x with Ca/Mg)/20 mM Hepes, pH 7.4 with 0.1 % BSA to be used for dilution of the agonist
3. 60 mL HBBS/20 mM Hepes to be added to test compounds
The day of the assay the seeding medium was carefully decanted from each well by tilting the plate. 25 µl loading buffer containing the Ca 2+ sensing dye was added to each well. Subsequently, 20 µL of HBBS/Hepes were added to each well containing dye. Plates were incubated at 37 °C for 45 min, after which 5 µL antagonist solution (diluted in HBBS/HEPES) were dispensed into each well using a Hamilton 384 well head followed by incubation at r.t. for 15 min. After 15 min agonist was added on the FLIPR platform and the fluorescence signal […]
First sequence: 2 s, 30 sample. (Baseline)
Second sequence: 2 s, 120 sample. (Agonist stimulation)
12.5 µL addiiton, after sample 30.
Addition speed: 20 µl/sec
Compound concentration: 5x, add 12.5 µl of each
One minute baseline stabilisation, 240 s measurement
Compound plate preparation:
Agonist stock solution: Luteinizing hormone releasing hormone, 10 mM in water […]
Dissolve 5 mg in 423 µL of water, store at -80 °C until use.
Prepare a full plate with only agonist at experimental EC50 dose as reported before on FLIPR platform:
Dilute 3,225 µL in 25 mL HBSS/Hepes buffer with 0.1 % BSA
Test compounds (antagonists)
Sample to be analysed (>95% pure by HPLC/microanalysis, fully characterised).
DMSO for cell culture (reference free, anhydrous) stored in desiccator 1: Dimethyl sulfoxide (Hybri-Max™, sterile-filtered, BioReagent, suitable for hybridoma, ≥99.7%, D2650-5X10ML, Sigma-Aldrich) […]
A - Solubility of the sample is assessed with an aliquot of the material and DMSO prior to sample preparation.
B - 10 ±1 mg of each neat, homogeneous sample are weighed into a labelled 1.5 mL flip-top Eppendorff tube.

[2] = Solubility (method not given); format: physicochemical
[3] = Thermodynamic solubility assay (Analiza, LC-QTOFMS); format: physicochemical; settings: for solubility thermodynamic at 24 h: 24 hour incubation, ambient temperature
Procedure: Thermodynamic solubility assay
Analysis performed at Analiza, Cleveland Ohio.
Apparatus Agilent G6538 QTOF Mass Spectrometer equipped with dual Electrospray Ionization with Mass Hunter data software package Agilent 1290 Infinity II UHPLC system equipped with photodiode array detector, binary pump, vacuum degasser, column heater, thermostat and validated data acquisition software Standard Laboratory equipment (e.g. Pyrex volumetric flasks, graduated cylinders and bottles, sonicator, vortexer, digital timer, calibrated analytical balance, pipettes and tips
Test Compounds: were supplied as dry powder in vials
Consumables: Sodium Chloride (Cat # 21618) was purchased from Affymetrix, Cleveland, OH. HPLC grade water (Cat # EM-WX0004-1), Omnisolv Acetonitrile and (Cat #EM-AX0142-1, DimethylSulfoxide (Cat #D1258) was purchased from Spectrum Chemical, New Brunswick, NJ. DeepWell 96 well plates (Cat #AWLS-219002) were purchased from Arctic White, Bethlehem, PA. Whatman Mini UniPrep syringe-less filter device with […] PTFE filter membrane (Cat #US203NPUORG), Formic Acid (Cat# 0961-100mL) and Round bottom 96 well plates (Cat# 29444-104) were purchased from VWR, Radnor, PA. Benzthiazide (Cat # B7149) and Alprenolol (Cat# A0360000) were purchased from Sigma-Aldrich, St. Louis, MO. Hydrochloric acid,36%, (Cat # 124635000) and Phosphate Buffered Saline, 10X PBS solution, (Cat # BP399-500) were purchased from Fisher Scientific, Fair Lawn, New Jersey.
Preparation of Calibration Standards for LC-MS Analysis:
Separate test compound was weighed into 4mL vials for calibration curves. Samples were received as dry powders in vials containing approximately 5mg of material each. Upon arrival at Analiza the vials were intact.
DimethylSulfoxide (DMSO) was added to each sample such that the final concentration was 10mM and vortexed for 5-10 seconds. After vortexing, all compounds appeared to be fully dissolved. Each test compound was transferred to a polypropylene 96 well plate for robotic preparation of calibration standards.
Each test article DMSO stock solution was serially diluted using a Hamilton STARlet liquid handler with 50-50 LC-MS water 0.1% Formic Acid and LC-MS acetonitrile 0.1% Formic Acid to final concentrations as described below in Table 1 and plated in a polypropylene 96 well plate sealed with foil seal for analysis. A standard calibration curve was prepared for each compound from these dilutions.
Ambient Temperature Test compounds were received as dry powders in vials containing approximately 5mg of material each. Upon arrival at Analiza the vials were intact. Each sample was weighed into a Whatman vial and the appropriate Buffer (450uL) was added to each vial for a dose concentration of approximately 2mg/mL .
Following 24 hour incubation on a rotary shaker (200 RPM) at ambient temperature (22.6-25.0°C), the samples were filtered in a 96 well polypropylene plate. The plate was sealed with a pierceable heat seal and analyzed by […]
Quantitation: 1.) LC-QTOFMS: a. Each sample was weighed into a whatman vial and the appropriate buffer (450uL) was added to each vial for a dose concentration of approximately 2mg/mL incubated for 24 hours and filtered b. The filtrates were assayed undiluted or diluted 100X, 1000X, and/or 10000x with a 50:50 solution of mobile phase and eluted using a fast generic gradient program. c. […] The filtrates were quantified with respect to this calibration curve. […]

[4] = target: human GnRH receptor; set-up: method as in PMID 19271735; settings: concentration to inhibit GnRH binding to the receptor by 50% ref 11; read-out: IC50 (hGnRH); cited from earlier work
[5] = target: rat GnRH receptor; set-up: method as in PMID 19271735; settings: concentration to inhibit GnRH binding to the receptor by 50% ref 11; read-out: IC50 (rGnRH); cited from earlier work
[6] = pH 1.2 (simulated gastric fluid)
[7] = pH 7.4 (phosphate buffered saline)
[8] = calculated from mean IC50 using the Cheng–Prusoff equation, read-out: Ki (hGnRH)
[9] = inhibition of LHRH/GnRH stimulation in cells stably expressing hGnRH receptors, IC50 geometric mean of two experiments, read-out: pIC50 (hGnRH) (converted)

In the case of `CC(C)(C)c1ccc(-c2nc3c(N4CCN(CCF)CC4)cccc3[nH]2)cc1` [7a], the “potency, fold lower than 1” value ([1]; relative to 1) is reported as 21 fold and the solubility [2] is reported as greater than 0.1 µM.
Work on `C#CCN1CCN(c2cccc3[nH]c(-c4ccc(C(C)(C)C)cc4)nc23)CC1` [7b] yielded a solubility [2] greater than 0.1 µM.
For `CC(C)(C)c1ccc(-c2nc3c(N4CCN(Cc5cn(CCF)nn5)CC4)cccc3[nH]2)cc1` [8a], the “potency to inhibit GnRH receptor (in words)” value [1] was “equally potent as 1”, the solubility thermodynamic at 24 h [3, 6] was 2100 µg/mL (≈ 4550 µM) and the solubility thermodynamic at 24 h [3, 7] was 3 µg/mL (≈ 6.5 µM). For the same compound, the “solubility, times more soluble than 1” value ([3]; relative to 1) was 1.5 times.
Compound `CC(=O)NC1C(O)C(O)C(CO)OC1n1cc(CN2CCN(c3cccc4[nH]c(-c5ccc(C(C)(C)C)cc5)nc34)CC2)nn1` (stereo not shown) [8f] has a Ki [1, 8] greater than 1000 nM and an IC50 [1, 9] greater than 10000 nM.
In the case of `Cc1cn(C2CC(n3cc(CN4CCN(c5cccc6[nH]c(-c7ccc(C(C)(C)C)cc7)nc56)CC4)nn3)C(CO)O2)c(=O)[nH]c1=O` (stereo not shown) [8g], the Ki [1, 8] is reported as 38 nM, the IC50 [1, 9] is reported as 2000 nM and the solubility thermodynamic at 24 h [3, 6] is reported as 1200 µg/mL (≈ 1880 µM). The solubility thermodynamic at 24 h [3, 7] was less than 1 µg/mL.
In the case of `CC(C)(C)c1ccc(-c2nc3c(N4CCN(Cc5cn(-c6nc7ccccc7[nH]6)nn5)CC4)cccc3[nH]2)cc1` [8h], the “potency to inhibit GnRH receptor (in words)” value [1] is reported as “did not give the desired inhibition”.
For `CC(C)(C)c1ccc(-c2nc3c(N4CCN(Cc5cn(-c6ccc(F)cc6)nn5)CC4)cccc3[nH]2)cc1` [8i], the “potency to inhibit GnRH receptor (in words)” value [1] was “did not give the desired inhibition”.
In the case of `CSc1nc(NC(C)C)nc(-n2cc(CN3CCN(c4cccc5[nH]c(-c6ccc(C(C)(C)C)cc6)nc45)CC3)nn2)n1` [8j], the IC50 [1] is reported as greater than 10000 nM and the Ki [1] is reported as greater than 1000 nM.
In the case of `CC(C)(C)c1ccc(-c2nc3c(N4CCN(Cc5cccc6nccnc56)CC4)cccc3[nH]2)cc1` [compound 1], the IC50 [4] is listed as 12 nM and the IC50 [5] is listed as 72 nM.
